The text below walks through data of paper PMC7005530, “A selective androgen receptor modulator SARM‐2f activates androgen receptor, increases lean body mass, and suppresses blood lipid levels in cynomolgus monkeys” (Pharmacology Research & Perspectives, 2020).

Data set [1] in a line: Plasma lipid levels after 4-week treatment. It is filed as in vivo, cynomolgus monkey. The settings on record: after 4 wks; SARM‐2f 1, 3, 10 mg/kg daily p.o.; TE 2 mg/kg every 2 wks; vs vehicle. On the procedure: The monkeys were divided into five groups by weight randomization (MiTOX system ver2.0, Mitsui E & S Systems Research Inc) on the last day of the habituation period. SARM‐2f was orally administered at daily doses of 1, 3, or 10 mg/kg for 4 weeks between 9:00 and 11:00 hours, using 0.5% w/v methylcellulose as the vehicle. TE was injected intramuscularly on Day 0 and Day 13; the dosing start was set at Day 0 at a dose of 2 mg/kg using sesame oil as the vehicle. The route of administration and dose of TE was selected according to the route and dose mentioned in the clinical indications. BW was measured every week before dosing (between 8:30 and 9:00 hours), and LBM was measured every 2 weeks after dosing and before feeding (between 11:30 and 14:30 hours) using an X‐ray bone density measuring device (Discovery, HOLOGIC USA). Blood collection for lipid profiles was conducted on the day after the completion of the four‐week multiple administration of SARM‐2f or TE. Plasma levels of total cholesterol (T‐chol), HDL‐c, low‐density lipoprotein cholesterol (LDL‐c), triglyceride (TG), alanine aminotransferase (ALT), and […] (AST) were measured by an automatic JCA‐BM8 analysis system (JEOL Ltd.). Plasma lipoprotein (a) (Lp (a)) levels were measured using a multiplate absorbance measuring system (Multiscan Ascent, Thermo Fisher Scientific KK). […]

Data set [2] in a line: Liver function tests (AST, ALT) after 4-week treatment. As to conditions: after 4 wks; SARM‐2f 1, 3, 10 mg/kg daily p.o.; TE 2 mg/kg every 2 wks; vs vehicle. It is filed as in vivo, cynomolgus monkey. On the procedure: The monkeys were divided into five groups by weight randomization (MiTOX system ver2.0, Mitsui E & S Systems Research Inc) on the last day of the habituation period. SARM‐2f was orally administered at daily doses of 1, 3, or 10 mg/kg for 4 weeks between 9:00 and 11:00 hours, using 0.5% w/v methylcellulose as the vehicle. TE was injected intramuscularly on Day 0 and Day 13; the dosing start was set at Day 0 at a dose of 2 mg/kg using sesame oil as the vehicle. The route of administration and dose of TE was selected according to the route and dose mentioned in the clinical indications. BW was measured every week before dosing (between 8:30 and 9:00 hours), and LBM was measured every 2 weeks after dosing and before feeding (between 11:30 and 14:30 hours) using an X‐ray bone density measuring device (Discovery, HOLOGIC USA). Blood collection for lipid profiles was conducted on the day after the completion of the four‐week multiple administration of SARM‐2f or TE. Plasma levels of total cholesterol (T‐chol), HDL‐c, low‐density lipoprotein cholesterol (LDL‐c), triglyceride (TG), alanine aminotransferase (ALT), and […] (AST) were measured by an automatic JCA‐BM8 analysis system (JEOL Ltd.). Plasma lipoprotein (a) (Lp (a)) levels were measured using a multiplate absorbance measuring system (Multiscan Ascent, Thermo Fisher Scientific KK).
(§1) In the reporter assays, EC50 was calculated using Graph Pad Prism version 6. The effects of SARM‐2f or TE on BW and LBM were analyzed by t test, with Bonferroni correction for repeated measurements.

The conditions of data set [3]: TE intramuscular 20 mg/kg, monkeys, cited from earlier work.
For data set [4], the target named is T1, cynomolgus monkey AR (Macaca fascicularis, UniProt O97952).
T1 construct: expressed in transfected cells; host or cells: COS7
T1 sequence (O97952 1-895): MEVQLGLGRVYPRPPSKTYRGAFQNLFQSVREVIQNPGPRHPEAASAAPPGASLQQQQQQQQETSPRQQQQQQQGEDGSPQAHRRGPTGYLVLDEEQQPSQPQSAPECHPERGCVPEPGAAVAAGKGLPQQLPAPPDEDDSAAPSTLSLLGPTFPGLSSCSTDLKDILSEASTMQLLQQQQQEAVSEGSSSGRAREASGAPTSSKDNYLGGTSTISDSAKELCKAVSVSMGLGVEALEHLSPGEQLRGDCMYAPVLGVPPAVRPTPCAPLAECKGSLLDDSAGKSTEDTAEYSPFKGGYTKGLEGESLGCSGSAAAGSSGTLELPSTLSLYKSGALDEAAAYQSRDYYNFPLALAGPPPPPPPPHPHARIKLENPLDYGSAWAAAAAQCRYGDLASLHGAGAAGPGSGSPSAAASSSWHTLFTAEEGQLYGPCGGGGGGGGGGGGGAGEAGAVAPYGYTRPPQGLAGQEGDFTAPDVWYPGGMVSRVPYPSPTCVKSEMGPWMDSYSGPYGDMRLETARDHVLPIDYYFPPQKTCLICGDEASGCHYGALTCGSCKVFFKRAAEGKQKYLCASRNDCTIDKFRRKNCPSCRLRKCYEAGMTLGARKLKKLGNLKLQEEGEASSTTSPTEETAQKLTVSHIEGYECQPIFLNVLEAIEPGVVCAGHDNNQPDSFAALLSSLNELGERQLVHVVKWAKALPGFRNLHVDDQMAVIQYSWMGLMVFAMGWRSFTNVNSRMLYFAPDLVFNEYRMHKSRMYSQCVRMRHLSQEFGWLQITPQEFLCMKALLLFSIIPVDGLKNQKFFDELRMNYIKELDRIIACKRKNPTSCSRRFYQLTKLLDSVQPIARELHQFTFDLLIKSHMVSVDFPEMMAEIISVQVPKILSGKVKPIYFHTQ
Nature of the data set: AR reporter assay (MMTV-luc) in COS7 cells expressing monkey AR. It is filed as cell-based. How it is done: (§2) Two hours post‐transfection, the cells were plated in 96‐well plates at a density of 2 × 10^4 cells/well, and cultured at 37°C for 3 hours. […] Luciferase activity was measured using the Steady‐Glo Luciferase assay system (Promega) and an Envision Multimode Plate Reader (PerkinElmer).
as §1
A general note: In a reporter assay the amount or activity of a reporter protein is the signal.

The target of data set [5] is T2, human AR (Homo sapiens, UniProt P10275).
T2 construct: expressed in transfected cells; host or cells: COS7
T2 sequence (P10275 1-920): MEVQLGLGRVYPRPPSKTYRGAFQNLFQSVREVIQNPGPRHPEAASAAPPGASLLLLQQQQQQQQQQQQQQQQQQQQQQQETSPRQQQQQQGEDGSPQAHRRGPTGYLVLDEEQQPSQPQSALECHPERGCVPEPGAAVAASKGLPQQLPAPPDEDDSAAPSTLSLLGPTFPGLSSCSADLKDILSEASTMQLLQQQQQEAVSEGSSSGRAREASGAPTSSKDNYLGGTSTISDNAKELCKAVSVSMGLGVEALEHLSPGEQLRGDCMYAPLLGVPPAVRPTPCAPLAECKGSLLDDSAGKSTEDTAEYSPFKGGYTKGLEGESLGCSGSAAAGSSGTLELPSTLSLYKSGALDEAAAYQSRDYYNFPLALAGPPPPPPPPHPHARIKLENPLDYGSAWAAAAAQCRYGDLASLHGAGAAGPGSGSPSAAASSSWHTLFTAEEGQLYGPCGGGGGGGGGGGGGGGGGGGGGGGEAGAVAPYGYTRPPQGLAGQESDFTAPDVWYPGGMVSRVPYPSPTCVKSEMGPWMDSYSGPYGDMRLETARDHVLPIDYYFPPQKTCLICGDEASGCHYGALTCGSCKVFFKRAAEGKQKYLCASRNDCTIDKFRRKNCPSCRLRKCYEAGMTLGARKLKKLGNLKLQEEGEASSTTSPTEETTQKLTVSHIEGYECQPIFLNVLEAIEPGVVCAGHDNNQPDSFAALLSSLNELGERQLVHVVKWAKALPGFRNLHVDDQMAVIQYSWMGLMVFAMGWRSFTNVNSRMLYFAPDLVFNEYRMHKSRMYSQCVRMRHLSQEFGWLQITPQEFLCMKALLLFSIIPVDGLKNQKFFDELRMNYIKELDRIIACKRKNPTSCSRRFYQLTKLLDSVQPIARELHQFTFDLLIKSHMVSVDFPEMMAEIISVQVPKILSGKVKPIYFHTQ
Nature of the data set: AR reporter assay (MMTV-luc) in COS7 cells expressing human AR. It counts as cell-based. Also on record: Emax: dose or concentration left out as unconfirmed. The settings on record: COS-7, read-out: maximal activation level. On the procedure:
as §2, §1

Data set [6] has as its target T3, rat AR (Rattus norvegicus, UniProt P15207).
T3 construct: expressed in transfected cells; host or cells: COS7
T3 sequence (P15207 1-902): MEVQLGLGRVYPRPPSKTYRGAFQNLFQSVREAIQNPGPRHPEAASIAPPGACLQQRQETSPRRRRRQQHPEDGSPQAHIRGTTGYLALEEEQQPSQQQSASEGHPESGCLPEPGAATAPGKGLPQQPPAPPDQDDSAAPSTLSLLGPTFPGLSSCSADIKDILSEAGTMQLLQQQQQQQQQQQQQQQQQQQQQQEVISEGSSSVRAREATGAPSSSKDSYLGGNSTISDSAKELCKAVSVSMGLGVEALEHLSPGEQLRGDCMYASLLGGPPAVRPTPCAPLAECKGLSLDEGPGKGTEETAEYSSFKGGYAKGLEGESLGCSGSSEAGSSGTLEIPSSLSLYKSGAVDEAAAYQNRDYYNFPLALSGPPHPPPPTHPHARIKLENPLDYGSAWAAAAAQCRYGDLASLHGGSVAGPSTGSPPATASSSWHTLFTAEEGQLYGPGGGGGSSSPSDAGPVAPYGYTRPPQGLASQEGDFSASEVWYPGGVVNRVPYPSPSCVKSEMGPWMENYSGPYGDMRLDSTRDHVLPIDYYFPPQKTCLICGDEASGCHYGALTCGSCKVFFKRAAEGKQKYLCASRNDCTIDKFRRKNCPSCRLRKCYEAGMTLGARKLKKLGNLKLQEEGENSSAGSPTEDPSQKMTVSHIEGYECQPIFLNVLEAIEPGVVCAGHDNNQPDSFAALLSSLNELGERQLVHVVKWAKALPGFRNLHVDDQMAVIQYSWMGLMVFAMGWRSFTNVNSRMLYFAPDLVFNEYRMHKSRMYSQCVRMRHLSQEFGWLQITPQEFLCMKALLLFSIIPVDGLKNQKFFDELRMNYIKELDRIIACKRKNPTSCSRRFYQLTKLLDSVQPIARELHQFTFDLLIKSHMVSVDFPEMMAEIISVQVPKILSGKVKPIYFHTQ
In words: AR reporter assay (MMTV-luc) in COS7 cells expressing rat AR. It is filed as cell-based. Also on record: Emax: dose or concentration left out as unconfirmed. How it is done: as §2, §1

Regarding `CCCCCCC(=O)O[C@H]1CC[C@H]2[C@@H]3CCC4=CC(=O)CC[C@]4(C)[C@H]3CC[C@]12C` [TE, Testosterone enanthate, reference compound], in data set [1], the “Blood level of HDL‐c” value was “did not affect”, the “Blood level of LDL‐c” value is recorded as “increase the LDL‐c level significantly”, the “Blood level of TG” value is on record as “did reduce the TG level” and the “Blood level of T‐chol” value is listed as “did not affect”. Moreover, the “Lp (a) protein level” value in data set [1] is “did not affect”. Besides, in data set [2], the “Blood level of ALT” value is given as “not changed” and the “Blood level of AST” value is “not changed”. The “effect on BW” value in data set [3] (within 4 weeks) is reported as “significantly increasing the BW”. For the same compound, in data set [3], the “blood testosterone nadir levels” value is “approximately 1500 ng/dL”.

Regarding `C[C@](O)(COc1ccc(C#N)cc1)C(=O)Nc1ccc(C#N)c(C(F)(F)F)c1` [ostarine, reference compound], the results for the EC50 in data set [4] and in data set [6] were 2.2 nM and 2.5 nM, respectively. In data set [4] (monkey AR, at 1 μmol/L, 1 μmol/L DHT = 100%), the “maximal AR activation” value amounted to 126%. Besides, the Emax was 141% in data set [5] and 112% in data set [6] (COS-7, read-out: maximal activation).
